# In US6734204B1, “Serotonin potentiation by oleamide analogs” (The Scripps Research Institute, priority 1998, dated 2004):
# Entries after “also recorded” stand apart in the source; their conditions may differ. Like-named read-outs stand apart in the source and are kept apart here.
# How the values were obtained:
# rat 5-HT2A receptor [1] = biological target: T1, rat 5-HT2A receptor (Rattus norvegicus, UniProt P14842); assay: R-SAT assay, NIH 3T3 cells expressing the rat 5-HT2A receptor, β-galactosidase readout; type: cell-based; conditions: agent 500 nM, 100 nM 5-HT, compared with oleamide
# T1 construct: host or cells: NIH 3T3 cells, cotransfected with the beta-galactosidase gene
# T1 sequence (P14842 whole entry): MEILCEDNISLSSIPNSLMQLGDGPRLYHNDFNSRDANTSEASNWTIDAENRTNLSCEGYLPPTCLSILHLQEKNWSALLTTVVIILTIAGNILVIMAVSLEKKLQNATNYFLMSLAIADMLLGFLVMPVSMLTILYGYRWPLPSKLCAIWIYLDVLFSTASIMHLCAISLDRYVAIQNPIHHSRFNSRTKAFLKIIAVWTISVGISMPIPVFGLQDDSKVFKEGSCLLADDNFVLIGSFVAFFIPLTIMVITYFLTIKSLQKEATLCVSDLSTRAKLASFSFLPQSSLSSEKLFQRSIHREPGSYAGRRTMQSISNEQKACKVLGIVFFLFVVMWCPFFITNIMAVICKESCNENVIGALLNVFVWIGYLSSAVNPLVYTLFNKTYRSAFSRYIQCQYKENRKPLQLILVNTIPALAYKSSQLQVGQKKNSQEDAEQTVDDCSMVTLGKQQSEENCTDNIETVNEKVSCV
# Procedure: (§1) Activation of the 5-HT2A or 5-HT1A receptors in 5-HT dependent cell lines results in cell prolification measured by the levels of -galactosidase produced.
# (§2) An extensive series of agents was tested at 500 nM for their ability to potentiate the rat 5-HT2A or human 5-HT1A receptor response to 100 nM 5-HT. […] The analog screening was conducted with the rat 5-HT2A assay and a subset of analogs was also examined in the human 5-HT1A assay. The results reported are normalized to a 100% potentiation by oleamide for the ease of direct comparisons.
# (§3) Methods. The assays were conducted with R-SAT kits (Receptor Technologies Inc, Winooski, Vt.) containing NIH 3T3 cells expressing the rat 5-HT2A receptor (Suter et al. (1987) Fundam. Appl. Toxicol. 9, 785-794; Pritchett et al. (1988) EMBO J 7, 4135-4140) or RAT-1 cells expressing the human 5-HT1A receptor (Lam et al. (1996) Biochem. Biophys. Res. Commun. 219, 853-858; Kobilka et al. (1987) Nature 329, 75-79) cotransfected with the -galactosidase gene and were performed according to the procedures provided (Messier et al. (1995) Pharmacol. Toxicol. 76, 308-311; Brann et al. (1996) J. Biomol. Screening 1, 43-45). The cells in Dulbecco modified Eagle's medium containing serotonin (100 nM) and the analogs (500 nM) were incubated in a humidified 5% CO2 incubator at 37° C. for 4 or 5 days for the 5-HT2A and 5-HT1A transfected cells, respectively. Levels of -galactosidase were measured after incubation with the chromogenic substrate o-nitrophenyl- -D-galactopyranoside (20) at 30° C. in a humidified incubator for a recommended period of time and the absorbance was measured at 405 nm. The results were normalized to 100% for oleamide (rel. % potentiation) for the ease of comparison and are the average of 2-8 determinations.
# human 5-HT1A receptor [2] = biological target: T2, human 5-HT1A receptor (Homo sapiens, UniProt P08908); assay: R-SAT assay, RAT-1 cells expressing the human 5-HT1A receptor, β-galactosidase readout; type: cell-based; conditions: agent 500 nM, 100 nM 5-HT, compared with oleamide
# T2 construct: host or cells: RAT-1 cells, cotransfected with the beta-galactosidase gene
# T2 sequence (P08908 1-422): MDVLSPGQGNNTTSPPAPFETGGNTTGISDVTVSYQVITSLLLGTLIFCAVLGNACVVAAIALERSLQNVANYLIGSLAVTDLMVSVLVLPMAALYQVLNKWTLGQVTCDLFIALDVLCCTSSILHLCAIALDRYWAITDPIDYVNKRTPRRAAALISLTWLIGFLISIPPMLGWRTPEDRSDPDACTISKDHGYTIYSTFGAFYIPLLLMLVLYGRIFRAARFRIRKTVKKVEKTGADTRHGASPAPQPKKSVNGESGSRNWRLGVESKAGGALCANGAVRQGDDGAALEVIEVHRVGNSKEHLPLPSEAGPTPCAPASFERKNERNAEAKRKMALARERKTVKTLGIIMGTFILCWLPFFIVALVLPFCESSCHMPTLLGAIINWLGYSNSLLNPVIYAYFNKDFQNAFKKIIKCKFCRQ
# Procedure: as §1, §2, §3
# 5-HT2C receptor = biological target: T3, 5-HT2C receptor (Homo sapiens, UniProt P28335); conditions: cited from earlier work
# T3 construct: host or cells: frog oocytes, transfected
# T3 sequence (P28335 33-458): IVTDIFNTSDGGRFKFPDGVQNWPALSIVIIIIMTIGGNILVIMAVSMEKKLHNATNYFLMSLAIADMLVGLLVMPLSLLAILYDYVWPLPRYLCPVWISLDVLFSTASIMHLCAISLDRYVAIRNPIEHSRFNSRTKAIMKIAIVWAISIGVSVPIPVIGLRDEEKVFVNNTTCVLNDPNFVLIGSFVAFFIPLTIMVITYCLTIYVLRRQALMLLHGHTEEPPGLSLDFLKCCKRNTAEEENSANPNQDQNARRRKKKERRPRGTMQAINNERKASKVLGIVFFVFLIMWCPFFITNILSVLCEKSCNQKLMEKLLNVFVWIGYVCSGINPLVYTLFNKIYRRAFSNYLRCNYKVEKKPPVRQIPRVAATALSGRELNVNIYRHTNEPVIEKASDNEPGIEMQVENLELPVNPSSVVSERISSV
# rat 5-HT2A receptor [3] = biological target: T1, rat 5-HT2A receptor; assay: R-SAT assay, NIH 3T3 cells expressing the rat 5-HT2A receptor, β-galactosidase readout; type: cell-based; conditions: for potentiation response: 100 nM oleamide
# [4] = biological target: T4, 5-HT3 ion-gated channel receptor (Homo sapiens, UniProt P46098); conditions: 100 nM serotonin, 100 nM oleamide; cited from earlier work
# T4 construct: host or cells: frog oocytes, transfected
# T4 sequence (P46098 24-478): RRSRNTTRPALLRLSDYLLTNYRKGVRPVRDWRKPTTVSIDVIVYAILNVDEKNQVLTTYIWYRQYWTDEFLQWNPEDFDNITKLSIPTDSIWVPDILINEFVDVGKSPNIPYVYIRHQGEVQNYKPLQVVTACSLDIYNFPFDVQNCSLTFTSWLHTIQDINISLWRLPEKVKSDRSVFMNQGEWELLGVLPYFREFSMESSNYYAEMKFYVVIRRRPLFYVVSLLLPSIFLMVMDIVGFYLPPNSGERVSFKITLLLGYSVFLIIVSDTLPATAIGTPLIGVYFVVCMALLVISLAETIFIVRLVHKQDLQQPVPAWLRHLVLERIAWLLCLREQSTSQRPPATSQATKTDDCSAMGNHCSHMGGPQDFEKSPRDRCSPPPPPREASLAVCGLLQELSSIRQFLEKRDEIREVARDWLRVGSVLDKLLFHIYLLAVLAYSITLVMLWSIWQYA
# 5-HT2A receptor = biological target: T5, 5-HT2A receptor (Homo sapiens, UniProt P28223); conditions: 100 nM serotonin, 100 nM oleamide; Huidobro-Toro et al. 1996; cited from earlier work
# T5 construct: host or cells: frog oocytes, transfected
# T5 sequence (P28223 whole entry): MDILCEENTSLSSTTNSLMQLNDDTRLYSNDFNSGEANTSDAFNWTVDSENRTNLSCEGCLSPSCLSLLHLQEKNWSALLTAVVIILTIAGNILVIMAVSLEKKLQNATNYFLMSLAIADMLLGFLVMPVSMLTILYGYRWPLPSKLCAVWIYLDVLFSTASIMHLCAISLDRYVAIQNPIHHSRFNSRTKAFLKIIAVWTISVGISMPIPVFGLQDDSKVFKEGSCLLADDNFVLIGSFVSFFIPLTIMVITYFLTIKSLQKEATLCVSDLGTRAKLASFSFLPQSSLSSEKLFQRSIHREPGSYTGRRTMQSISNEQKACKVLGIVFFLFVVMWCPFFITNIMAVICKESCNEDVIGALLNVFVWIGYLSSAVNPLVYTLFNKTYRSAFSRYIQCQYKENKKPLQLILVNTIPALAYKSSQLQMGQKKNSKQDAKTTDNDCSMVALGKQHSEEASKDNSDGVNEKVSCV
# 5-HT2A receptors = biological target: T6, 5-HT2A receptors (Rattus norvegicus, UniProt P14842); conditions: 100 nM serotonin, 100 nM oleamide; Thomas et al. 1997; cited from earlier work
# T6 construct: rat pituitary P11 cells expressing the 5-HT2 receptor; endogenous in cells; host or cells: rat pituitary P11 cells
# T6 sequence (P14842 whole entry): as the sequence (P14842 whole entry) above
# 5-HT7 receptor = biological target: T7, 5-HT7 receptor (Homo sapiens, UniProt P34969); conditions: cited from earlier work
# T7 construct: host or cells: HeLa cells, transfected
# T7 sequence (P34969 whole entry): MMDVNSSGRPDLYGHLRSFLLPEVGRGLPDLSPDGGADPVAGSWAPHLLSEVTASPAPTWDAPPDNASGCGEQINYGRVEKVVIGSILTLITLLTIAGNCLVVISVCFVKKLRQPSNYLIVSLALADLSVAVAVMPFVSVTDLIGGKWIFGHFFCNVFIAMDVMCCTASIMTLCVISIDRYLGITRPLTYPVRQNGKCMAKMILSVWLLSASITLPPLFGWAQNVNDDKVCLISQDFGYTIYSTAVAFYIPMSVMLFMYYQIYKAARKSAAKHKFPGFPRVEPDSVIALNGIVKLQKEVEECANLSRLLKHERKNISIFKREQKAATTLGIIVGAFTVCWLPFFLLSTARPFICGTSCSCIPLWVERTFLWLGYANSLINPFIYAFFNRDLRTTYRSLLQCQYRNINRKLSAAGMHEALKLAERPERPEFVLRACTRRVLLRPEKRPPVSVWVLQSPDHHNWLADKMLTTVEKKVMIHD
# human 5-HT1A receptor [5] = biological target: T2, human 5-HT1A receptor; assay: R-SAT assay, RAT-1 cells expressing the human 5-HT1A receptor, β-galactosidase readout; type: cell-based; conditions: for potentiation: 100 nM 5-HT
# FAAH = conditions: cited from earlier work
SMILES,potentiation of the 5-HT2A receptor response (in words) (rat 5-HT2A receptor [1]),potentiation of the 5-HT1A receptor response (in words) (human 5-HT1A receptor [2]),also measured
CCCCCCCC/C=C\CCCCCCCCOCC(CO)OC(C)=O (stereo not drawn) [1-oleyl-2-acetylglycerol],weakly inhibited,–,–
"CCCCCCCC/C=C\CCCCCCC(C)(C)C(N)=O [2,2-dimethyloleamide]",potent inhibitors,–,–
"CCCC/C=C\CCCCCCCC(N)=O [14:1^9, Myristoleamide]",–,more effective on the 5-HT1A receptor than 5-HT2A,–
"CCCCCC/C=C\CCCCCCCC(N)=O [16:1^9, Palmitoleamide]",–,approaching the potency of oleamide,–
"CCCCCCCCCCCCCCCCCC(N)=O [18:0, stearamide]",no observable potentiation; also recorded: ineffective at potentiating,"less effective than oleamide, albeit not inactive",–
"CCCCCCCC/C=C/CCCCCCCC(N)=O [18:1^9-trans, Elaidamide]",no observable potentiation; also recorded: ineffective at potentiating,"less effective than oleamide, albeit not inactive",–
"CCCCC/C=C\C/C=C\CCCCCCCC(N)=O [18:2^9,12, Linoleamide]",–,approaching the potency of oleamide,–
"CC/C=C\C/C=C\C/C=C\CCCCCCCC(N)=O [18:3^6,9,12, linolenamide]",more effective but still less potent,–,–
CCCCCCCCCCCCCC/C=C\CCCC(N)=O [20:1^5],–,–,potentiation of the 5-HT2A receptor response (in words) (rat 5-HT2A receptor [1]; listed as 20:1^9): inactivity; potentiation of the 5-HT2A receptor response (in words) (rat 5-HT2A receptor [1]; listed as 20:1^13): modest activity
"CCCCCCCC/C=C\CCCCCCCCCCCCCC(N)=O [24:1^9, Nervonamide]",modest activity,–,–
CCCCC/C=C\C/C=C\C/C=C\C/C=C\CCCC(N)=O [Arachidonamide],ineffective,–,potentiation of the 5-HT2A receptor response (in words) (rat 5-HT2A receptor [1]; listed as arachidonamide): less active or ineffective
"CCCCCCCCC#CCCCCCCCC(N)=O [Compound 2, 9-octadecynamide]",nearly equipotent with oleamide,–,–
"CCCCCCCC/C=C\CCCCCCCC(=O)NCC(=O)O [N-oleyl glycine, N-Oleoyl glycine]",–,weak potentiator,–
CCCCCCCCC=CCCCCCCCC(=O)N(C)C [NMe2 tertiary amide],maximum effect,–,–
"CCCCC/C=C\C/C=C\C/C=C\C/C=C\CCCC(=O)NCCO [anandamide, reference compound]",weakly inhibitory; also recorded: less active or ineffective,found to potentiate,–
CCCCCCCC/C=C\CCCCCCCC(=O)NC1CC1 [cyclopropyl amide],uniquely effective at inhibiting; also recorded: inactive or inhibitory,effective at potentiating,–
CCCCCCCCC=CCCCCCCCC(=O)NC(C)C [isopropyl amide],inactive or inhibitory,effective at potentiating,–
"CCCCCCCC/C=C\CCCCCCCC(N)=O [oleamide, cis-9-ocatadecenamide]",most effective,–,"potentiation of 5-HT2C (5-HT2C receptor; 100 nM serotonin, 100 nM oleamide): 365%; concentration of maximal potentiation (5-HT2C receptor): 100 nM; lowest concentration at which potentiation was observed (5-HT2C receptor): 1 nM; potentiation response (rat 5-HT2A receptor [3]; 100 nM 5-HT): 165%; potentiation response (rat 5-HT2A receptor [3]; 1 μM 5-HT): 170%; potentiation at higher concentration (rat 5-HT2A receptor [3]; 1 μM oleamide): no additional potentiation; concentration giving maximal response (rat 5-HT2A receptor [3]; assayed at 100 nM or 1 μM 5-HT): 100 nM; effect of treatment alone (rat 5-HT2A receptor [3]; without 5-HT): no effect; effect on 5-HT3 receptor [4]: no effect; potentiation of 5-HT2A (5-HT2A receptor): 260%; potentiation of 5-HT2A (5-HT2A receptors): 228%; action at the 5-HT7 receptor (5-HT7 receptor; alone): weak agonist; action at the 5-HT7 receptor (5-HT7 receptor; in the presence of serotonin): unsurmountable antagonist; potentiation (human 5-HT1A receptor [5]; 100 nM oleamide): 370%; potentiation (human 5-HT1A receptor [5]; 1 μM oleamide): 560%; lowest concentrations producing a measurable effect (human 5-HT1A receptor [5]; with 5-HT): 1 to 10 nM; effect of treatment alone (human 5-HT1A receptor [5]; without 5-HT): no effect"
"CCCCCCCC/C=C\CCCCCCCC(=O)O [oleic acid, Oleic acid, reference compound]",did not provide a comparable potentiation,better tolerated,–
CCCCCCCC/C=C\CCCCCCCC=O [oleyl aldehyde],–,–,inhibition of FAAH (in words) (FAAH): potent inhibitors
CCCCCCCC/C=C\CCCCCCCC(=O)NCCO [oleyl ethanolamide],less active or ineffective,found to potentiate,–
CCCCCCCC/C=C\CCCCCCCC(=O)NCCCO [oleyl propanolamide],–,equally effective,–
